{"source": "patent US20230303549A1", "about": "“SUBSTITUTED HETEROARYLOXYPYRIDINES, THE SALTS THEREOF AND THEIR USE AS HERBICIDAL AGENTS” (Bayer Aktiengesellschaft, priority 2020, published 2023)", "assay_type_in_all_cases": "in vivo", "key": {"[1]": {"system": "Echinochloa crus-galli (ECHCG)", "experiment": "Pre-emergence herbicide efficacy at 320 g/ha, greenhouse pot test", "conditions": "visual scoring vs untreated control after about 3 weeks", "from_the_text": "(§1) Seeds of mono- and dicotyledonous weed plants were placed in plastic pots in sandy loam soil (doubly sown with in each case one species of mono- or dicotyledonous weed plants per pot) and covered with soil. The compounds of the invention, formulated in the form of wettable powders (WP) or as emulsion concentrates (EC), were then applied onto the surface of the covering soil as aqueous suspension or emulsion with addition of 0.5% additive at a water application rate of 600 liters per hectare (converted). After the treatment, the pots were placed in a greenhouse and kept under good growth conditions for the test plants. After about 3 weeks, the effect of the preparations was scored visually in comparison with untreated controls as percentages. For example, 100% activity=the plants have died, 0% activity=like control plants. Tables C1 to C12 below show the effects of selected compounds of the general formula (I) according to Table 1 on various harmful plants and an application rate corresponding to 320 g/ha, which were obtained by the experimental procedure mentioned above."}, "[2]": {"system": "Abutilon theophrasti (ABUTH)", "experiment": "Pre-emergence herbicide efficacy at 320 g/ha, greenhouse pot test", "conditions": "visual scoring vs untreated control after about 3 weeks", "from_the_text": "as §1"}, "Veronica persica (VERPE) [3]": {"system": "Veronica persica (VERPE)", "experiment": "Pre-emergence herbicide efficacy at 320 g/ha, greenhouse pot test", "conditions": "visual scoring vs untreated control after about 3 weeks", "from_the_text": "as §1"}, "[4]": {"system": "Amaranthus retroflexus (AMARE)", "experiment": "Pre-emergence herbicide efficacy at 320 g/ha, greenhouse pot test", "conditions": "visual scoring vs untreated control after about 3 weeks", "from_the_text": "as §1"}, "Poa annua (POAAN) [5]": {"system": "Poa annua (POAAN)", "experiment": "Pre-emergence herbicide efficacy at 320 g/ha, greenhouse pot test", "conditions": "visual scoring vs untreated control after about 3 weeks", "from_the_text": "as §1"}, "Bassia scoparia (KCHSC) [6]": {"system": "Bassia scoparia (KCHSC)", "experiment": "Pre-emergence herbicide efficacy at 320 g/ha, greenhouse pot test", "from_the_text": "as §1"}, "[7]": {"system": "Matricaria inodora (MATIN)", "experiment": "Pre-emergence herbicide efficacy at 320 g/ha, greenhouse pot test", "conditions": "visual scoring vs untreated control after about 3 weeks", "from_the_text": "as §1"}, "Setaria viridis (SETVI)": {"system": "Setaria viridis (SETVI)", "experiment": "Pre-emergence herbicide efficacy at 320 g/ha, greenhouse pot test", "conditions": "visual scoring vs untreated control after about 3 weeks", "from_the_text": "as §1"}, "[8]": {"system": "Alopecurus myosuroides (ALOMY)", "experiment": "Pre-emergence herbicide efficacy at 320 g/ha, greenhouse pot test", "conditions": "visual scoring vs untreated control after about 3 weeks", "from_the_text": "as §1"}, "Stellaria media (STEME) [9]": {"system": "Stellaria media (STEME)", "experiment": "Pre-emergence herbicide efficacy at 320 g/ha, greenhouse pot test", "conditions": "visual scoring vs untreated control after about 3 weeks", "from_the_text": "as §1"}, "[10]": {"system": "Abutilon theophrasti (ABUTH)", "experiment": "Post-emergence herbicidal efficacy at 320 g/ha, greenhouse pot test", "conditions": "visual rating vs untreated control after about 3 weeks", "procedure": "(§2) Seeds of mono- and dicotyledonous weed plants were placed in plastic pots in sandy loam soil (doubly sown with in each case one species of mono- or dicotyledonous weed plants per pot), covered with soil and cultivated in a greenhouse under controlled growth conditions. 2 to 3 weeks after sowing, the test plants were treated at the one-leaf stage. The compounds of the invention, formulated in the form of wettable powders (WP) or as emulsion concentrates (EC), were applied onto the green parts of the plants as aqueous suspension or emulsion with addition of 0.5% additive at a water application rate of 600 liters per hectare (converted). After the test plants had been kept in the greenhouse under optimum growth conditions for about 3 weeks, the activity of the preparations was rated visually in comparison to untreated controls. For example, 100% activity=the plants have died, 0% activity=like control plants. Tables […] 11 below show the effects of selected compounds of the general formula (I) according to Table 1 on various harmful plants and an application rate corresponding to 320 g/ha, which were obtained by the experimental procedure mentioned above."}, "Poa annua (POAAN) [11]": {"system": "Poa annua (POAAN)", "experiment": "Post-emergence herbicidal efficacy at 320 g/ha, greenhouse pot test", "conditions": "visual rating vs untreated control after about 3 weeks", "procedure": "as §2"}, "Bassia scoparia (KCHSC) [12]": {"system": "Bassia scoparia (KCHSC)", "experiment": "Post-emergence herbicidal efficacy at 320 g/ha, greenhouse pot test", "conditions": "visual rating vs untreated control after about 3 weeks", "procedure": "as §2"}, "Veronica persica (VERPE) [13]": {"system": "Veronica persica (VERPE)", "experiment": "Post-emergence herbicidal efficacy at 320 g/ha, greenhouse pot test", "conditions": "320 g/ha, visual rating vs untreated control after about 3 weeks", "procedure": "as §2"}, "[14]": {"system": "Amaranthus retroflexus (AMARE)", "experiment": "Post-emergence herbicidal efficacy at 320 g/ha, greenhouse pot test", "conditions": "visual rating vs untreated control after about 3 weeks", "procedure": "as §2"}, "Stellaria media (STEME) [15]": {"system": "Stellaria media (STEME)", "experiment": "Post-emergence herbicidal efficacy at 320 g/ha, greenhouse pot test", "conditions": "visual rating vs untreated control after about 3 weeks", "procedure": "as §2"}, "[16]": {"conditions": "dosage 1280 g/ha in Table C6, visual scoring after about 3 weeks"}}, "data": [{"smiles": "Cc1cc(C)c(-c2cc(C(F)(F)F)on2)c(Oc2ncc(F)cn2)n1", "note": "[Example I-6]", "values": [{"measurement": "Pre-emergence efficacy against Echinochloa crus-galli (ECHCG)", "setting": "[1]", "value": 100, "unit": "%"}, {"measurement": "Pre-emergence efficacy against Abutilon theophrasti (ABUTH)", "setting": "[2]", "value": 100, "unit": "%"}, {"measurement": "Pre-emergence efficacy against Veronica persica (VERPE)", "setting": "Veronica persica (VERPE) [3]", "value": 100, "unit": "%"}, {"measurement": "Pre-emergence efficacy against Amaranthus retroflexus (AMARE)", "setting": "[4]", "value": 100, "unit": "%"}, {"measurement": "Pre-emergence efficacy against Poa annua (POAAN)", "setting": "Poa annua (POAAN) [5]", "value": 100, "unit": "%"}, {"measurement": "Pre-emergence efficacy against Bassia scoparia (KCHSC)", "setting": "Bassia scoparia (KCHSC) [6]; 320 g/ha, visual scoring vs untreated control after about 3 weeks", "value": 90, "unit": "%"}, {"measurement": "Pre-emergence efficacy against Matricaria inodora (MATIN)", "setting": "[7]", "value": 100, "unit": "%"}, {"measurement": "Pre-emergence efficacy against Setaria viridis (SETVI)", "setting": "Setaria viridis (SETVI)", "value": 100, "unit": "%"}, {"measurement": "Pre-emergence efficacy against Alopecurus myosuroides (ALOMY)", "setting": "[8]", "value": 90, "unit": "%"}, {"measurement": "Pre-emergence efficacy against Stellaria media (STEME)", "setting": "Stellaria media (STEME) [9]", "value": 100, "unit": "%"}, {"measurement": "Post-emergence efficacy against Abutilon theophrasti (ABUTH)", "setting": "[10]", "value": 90, "unit": "%"}, {"measurement": "Post-emergence efficacy against Poa annua (POAAN)", "setting": "Poa annua (POAAN) [11]", "value": 90, "unit": "%"}, {"measurement": "Post-emergence efficacy against Bassia scoparia (KCHSC)", "setting": "Bassia scoparia (KCHSC) [12]", "value": 90, "unit": "%"}]}, {"smiles": "Cc1cc(C)c(-c2cc(C3CC3)no2)c(Oc2ncc(F)cn2)n1", "note": "[Example I-178]", "values": [{"measurement": "Pre-emergence efficacy against Echinochloa crus-galli (ECHCG)", "setting": "[1]", "value": 100, "unit": "%"}, {"measurement": "Pre-emergence efficacy against Abutilon theophrasti (ABUTH)", "setting": "[2]", "value": 100, "unit": "%"}, {"measurement": "Pre-emergence efficacy against Veronica persica (VERPE)", "setting": "Veronica persica (VERPE) [3]", "value": 100, "unit": "%"}, {"measurement": "Pre-emergence efficacy against Amaranthus retroflexus (AMARE)", "setting": "[4]", "value": 100, "unit": "%"}, {"measurement": "Pre-emergence efficacy against Poa annua (POAAN)", "setting": "Poa annua (POAAN) [5]", "value": 100, "unit": "%"}, {"measurement": "Pre-emergence efficacy against Bassia scoparia (KCHSC)", "setting": "Bassia scoparia (KCHSC) [6]; [16]", "value": 90, "unit": "%"}, {"measurement": "Pre-emergence efficacy against Matricaria inodora (MATIN)", "setting": "[7]", "value": 100, "unit": "%"}, {"measurement": "Pre-emergence efficacy against Setaria viridis (SETVI)", "setting": "Setaria viridis (SETVI)", "value": 100, "unit": "%"}, {"measurement": "Pre-emergence efficacy against Stellaria media (STEME)", "setting": "Stellaria media (STEME) [9]", "value": 100, "unit": "%"}, {"measurement": "Post-emergence efficacy against Abutilon theophrasti (ABUTH)", "setting": "[10]", "value": 90, "unit": "%"}, {"measurement": "Post-emergence efficacy against Veronica persica (VERPE)", "setting": "Veronica persica (VERPE) [13]", "value": 100, "unit": "%"}, {"measurement": "Post-emergence efficacy against Amaranthus retroflexus (AMARE)", "setting": "[14]", "value": 100, "unit": "%"}, {"measurement": "Post-emergence efficacy against Poa annua (POAAN)", "setting": "Poa annua (POAAN) [11]", "value": 100, "unit": "%"}, {"measurement": "Post-emergence efficacy against Bassia scoparia (KCHSC)", "setting": "Bassia scoparia (KCHSC) [12]", "value": 90, "unit": "%"}, {"measurement": "Post-emergence action against Stellaria media (STEME)", "setting": "Stellaria media (STEME) [15]", "value": 100, "unit": "%"}]}, {"smiles": "Cc1cc(C)c(-c2cc(C3CC3)no2)c(Oc2ncc(Cl)cn2)n1", "note": "[Example I-179]", "values": [{"measurement": "Pre-emergence efficacy against Echinochloa crus-galli (ECHCG)", "setting": "[1]", "value": 100, "unit": "%"}, {"measurement": "Pre-emergence efficacy against Abutilon theophrasti (ABUTH)", "setting": "[2]", "value": 100, "unit": "%"}, {"measurement": "Pre-emergence efficacy against Veronica persica (VERPE)", "setting": "Veronica persica (VERPE) [3]", "value": 90, "unit": "%"}, {"measurement": "Pre-emergence efficacy against Amaranthus retroflexus (AMARE)", "setting": "[4]", "value": 100, "unit": "%"}, {"measurement": "Pre-emergence efficacy against Poa annua (POAAN)", "setting": "Poa annua (POAAN) [5]", "value": 100, "unit": "%"}, {"measurement": "Pre-emergence efficacy against Bassia scoparia (KCHSC)", "setting": "Bassia scoparia (KCHSC) [6]; [16]", "value": 90, "unit": "%"}, {"measurement": "Pre-emergence efficacy against Matricaria inodora (MATIN)", "setting": "[7]", "value": 100, "unit": "%"}, {"measurement": "Pre-emergence efficacy against Setaria viridis (SETVI)", "setting": "Setaria viridis (SETVI)", "value": 100, "unit": "%"}, {"measurement": "Pre-emergence efficacy against Stellaria media (STEME)", "setting": "Stellaria media (STEME) [9]", "value": 100, "unit": "%"}, {"measurement": "Post-emergence efficacy against Abutilon theophrasti (ABUTH)", "setting": "[10]", "value": 90, "unit": "%"}, {"measurement": "Post-emergence efficacy against Veronica persica (VERPE)", "setting": "Veronica persica (VERPE) [13]", "value": 100, "unit": "%"}, {"measurement": "Post-emergence efficacy against Amaranthus retroflexus (AMARE)", "setting": "[14]", "value": 90, "unit": "%"}, {"measurement": "Post-emergence efficacy against Poa annua (POAAN)", "setting": "Poa annua (POAAN) [11]", "value": 90, "unit": "%"}, {"measurement": "Post-emergence efficacy against Bassia scoparia (KCHSC)", "setting": "Bassia scoparia (KCHSC) [12]", "value": 90, "unit": "%"}, {"measurement": "Post-emergence action against Stellaria media (STEME)", "setting": "Stellaria media (STEME) [15]", "value": 100, "unit": "%"}]}, {"smiles": "Cc1cc(C)c(-n2cc(I)cn2)c(Oc2ncc(Cl)cn2)n1", "note": "[Example I-295]", "values": [{"measurement": "Pre-emergence efficacy against Echinochloa crus-galli (ECHCG)", "setting": "[1]", "value": 90, "unit": "%"}, {"measurement": "Pre-emergence efficacy against Abutilon theophrasti (ABUTH)", "setting": "[2]", "value": 100, "unit": "%"}, {"measurement": "Pre-emergence efficacy against Veronica persica (VERPE)", "setting": "Veronica persica (VERPE) [3]", "value": 90, "unit": "%"}, {"measurement": "Pre-emergence efficacy against Amaranthus retroflexus (AMARE)", "setting": "[4]", "value": 100, "unit": "%"}, {"measurement": "Pre-emergence efficacy against Poa annua (POAAN)", "setting": "Poa annua (POAAN) [5]", "value": 90, "unit": "%"}, {"measurement": "Pre-emergence efficacy against Bassia scoparia (KCHSC)", "setting": "Bassia scoparia (KCHSC) [6]; [16]", "value": 100, "unit": "%"}, {"measurement": "Pre-emergence efficacy against Matricaria inodora (MATIN)", "setting": "[7]", "value": 100, "unit": "%"}, {"measurement": "Pre-emergence efficacy against Setaria viridis (SETVI)", "setting": "Setaria viridis (SETVI)", "value": 100, "unit": "%"}, {"measurement": "Pre-emergence efficacy against Stellaria media (STEME)", "setting": "Stellaria media (STEME) [9]", "value": 100, "unit": "%"}, {"measurement": "Post-emergence efficacy against Veronica persica (VERPE)", "setting": "Veronica persica (VERPE) [13]", "value": 100, "unit": "%"}, {"measurement": "Post-emergence efficacy against Amaranthus retroflexus (AMARE)", "setting": "[14]", "value": 90, "unit": "%"}, {"measurement": "Post-emergence efficacy against Bassia scoparia (KCHSC)", "setting": "Bassia scoparia (KCHSC) [12]", "value": 90, "unit": "%"}, {"measurement": "Post-emergence action against Stellaria media (STEME)", "setting": "Stellaria media (STEME) [15]", "value": 90, "unit": "%"}]}]}
